Assay results from patent publication US20060052455A1, “Composition for preventing treating the xepression of clinical symptom in disease caused by mitochondrial dysfunction” (priority 2002, published 2006).

Tested on: MELAS patients
Experiment: Intravenous drip infusion of L-arginine monohydrochloride to MELAS patients
Type: in vivo, human
Description: This treatment by intravenous injection is, however, not convenient for MELAS patients, because, in order to receive intravenous injection in the acute stage of cerebral apoplexy-like episode, they have to go to the hospital to receive such intravenous injection immediately after the episode has occurred. […] The scintillating scotoma refers to an abnormal visual field which is one of warning symptoms of a cerebral apoplexy-like episode, and when it occurs, a riffle-like light suddenly appears in a part of the visual field and usually lasts for 5 to 30 minutes. Moreover, administration of a large amount of L-arginine monohydrochloride into a blood vessel may presumably cause side effects such as drop in blood pressure, hydrochloric acidosis, or the like.

## Cl.N=C(N)NCCC[C@H](N)C(=O)O [L-arginine monohydrochloride]
Intravenous drip infusion, three patients
  treatment of the acute stage of cerebral apoplexy-like episode due to MELAS: effective
Intravenous injection
  improvement of warning symptoms of the episode, particularly scintillating scotoma: cannot improve
